Laboratory results taken from a melting point compilation (Tetko et al.; mined from patent text by program, amines drawn as free bases though some values may be those of a salt).

SMILES	melting point [°C]
CCC1CC2C3CCC4=CC(=O)CCC4C3CCC2(C)C1O (stereo not drawn)	150 to 152
CN1C(=O)NC(Cc2c[nH]c3ccccc23)C1CCc1cc(C(F)(F)F)cc(C(F)(F)F)c1 (stereo not drawn)	191
CC(C)(C)OC(=O)N[C@H](Cc1ccccc1)C(=O)N1CCC[C@H]1C(=O)NCc1ccc(C#N)nc1	167 to 170
Oc1ccnc(Nc2cccc(Cl)c2)n1	250 to 252
Cc1cccc(N2CCN(CCc3ccc(N4CCCNC4=O)cc3)CC2)c1	213
O=C1C2CC3CC1CC(c1cc(Br)ccc1O)(C3)C2	287 to 289
CCc1nc(S(=O)(=O)Nc2c(Cl)cccc2Cl)nn1-c1ccccc1	185 to 187
CC(C)=Cn1cnc2c(N)nc3ccccc3c21	284 to 289
Cc1cccc(-c2ccc(NC(=O)Nc3ccc(Oc4cc(N)ncn4)cc3)cc2C(F)(F)F)n1	130 to 133
O=c1[nH]c2ccccc2c(=O)c2ccccc12	245 to 248
Cc1cn(-c2cccc(N)c2)cn1	117 to 119
O=C(CCc1ccc(Cl)cc1Cl)NC1N=C(C2CC2)c2ccccc2N(CC(F)(F)F)C1=O (single isomer, unassigned; (+))	64 to 66
CCSC1=C(NC(=O)CN2CCN(CCSc3nc4c(C)c(Cl)cc(C(C)C)c4o3)CC2)C=CC(C)(SCC)N1 (stereo not drawn)	120 to 122
O=C1Nc2cccnc2N(C(=O)CCC#CCN2CCCCC2)c2ccccc21	197
Cc1ccc2c3c(ccc2n1)OC[C@H](CN1CCN(c2cccc4c2OCCO4)CC1)O3	154 to 155
CC(=O)N1CCN(c2ccc(Nc3nccc(-c4sc(-c5cccs5)nc4C)n3)cc2)CC1	134 to 136
COC(=O)c1ccc(-c2nc(-c3ccc(Cl)cc3)no2)c(N)c1	227 to 228
CC(=O)c1ccc2c(c1)C(Cc1ccccc1)=CC(=CCl)CO2	89 to 94
CC(NC(=O)[C@@H](N)C(C)C)c1cc2ccccc2s1 (stereo partly drawn)	70 to 71

SMILES	melting point [°C]
COc1ccc(C2CCSCC2)cc1OC1CCCC1	83 to 85
c1ccc2c(c1)-c1cccc3c(NCCCCNc4nccc5ccccc45)nnc-2c13	95 to 105
CCc1ccc2c(c1)C=Cc1cc(O)ccc1C2c1cn(-c2ccnc(NCC(=O)Nc3nc(CC(=O)O)cs3)n2)c(=O)[nH]c1=O (stereo not drawn)	225
O=[N+]([O-])c1ccc(NCC23CCCN2CCC3)c2ccccc12	143 to 144
NS(=O)(=O)c1ccc(-c2noc(-c3cnn4c(C5CC5)cc(-c5ccc(Cl)cc5)nc34)n2)s1	294
CCc1nc(C(=O)c2cc(F)c(Cl)cc2Cl)c(C=O)n1C(CC)CC	70 to 71
CN1CCN(c2cccc(C(=O)N3CC=C(c4ccccc4F)CC3)n2)CC1	177
C(=C\c1ccc2oc3ccc(/C=C/c4ccccc4)cc3c2c1)/c1ccccc1	226
CC(C)N1CCC(N2CCN(CCN3CCCCC3)C2=C(C#N)C#N)CC1	93 to 95
COc1cc(N2CCN(C)CC2)ccc1Nc1ncc2cc3ccccc3n2n1	150 to 153
CCc1cc2c(s1)C(C(=O)O)CC2=O (stereo not drawn)	128 to 132
CCOC(=O)c1cc(NC(C)=O)ccc1O	135 to 136
CCC1(CCCCCl)C(=O)Nc2c(Cl)cc(Cl)cc21 (stereo not drawn)	65 to 67
N#Cc1ccc(Nn2cnnc2)cc1-c1ccoc1	199 to 200
CC(=O)NCc1ccc(C(C)(C)C(=O)O)cc1	166 to 169
CCC(=O)C(CCCCCCOc1ccc(S(N)(=O)=O)cc1)C(=O)CC	86 to 87
O=C(Nc1nccs1)C(CC1CCCC1)c1ccc(Br)cc1 (stereo not drawn)	201 to 202
Cc1ccc(C=C2CSCC3=C2N(CC(F)(F)F)NC3c2ccc(C)cc2)cc1 (stereo not drawn)	168 to 178
CN(C)c1ccc(C(N)=NNc2ccc([N+](=O)[O-])cc2)cc1	174

SMILES	melting point [°C]
CCCCCc1ccc(C(=O)CCC(=O)O)cc1	98 to 100
CCCCCCCCCCCCCCCCCCOc1ccc(C(=O)O)cc1OCCCCCCCCCCCCCCCCCC	94 to 117
CCN(c1ccccc1)C1CC(C)N(C(C)=O)c2ccc(-c3ccccc3)cc21 (stereo not drawn)	121
Cn1nc(-c2cc(S(=O)(=O)Cl)c(Cl)cc2F)c(Cl)c1C(F)(F)F	116 to 117
CC(O)c1nn(Cc2ccccc2)c(=O)o1 (stereo not drawn)	70
Cc1cnc(N2CCNCC2)c2ccoc12	112
O=C(Nc1ccccc1)N1CCc2ccccc2C1	145 to 146
CCCCN1CCCC1=NC(=O)Nc1cccc(Cl)c1	94 to 96
CN1C(=O)CCC1(O)c1ccc(Cl)c(S(N)(=O)=O)c1 (stereo not drawn)	147 to 149
COCCC(=O)N[C@H]1CC[C@H](CCN2CCN(c3nc(C)cc4c3CCO4)CC2)CC1	178
COc1ccc(-c2ccc(C(C)=O)cc2[N+](=O)[O-])c(OC)c1	129 to 131
Cc1ccc(Cl)c(N)c1C#N	77 to 80
OC1(c2cccs2)CCN(CCCc2nnc3n2CCCCC3)CC1	162 to 163
O=C(C#Cc1ccc(C(F)(F)F)cc1Cl)Nc1ccc(OCCn2cccn2)cc1	120 to 125
Cc1cc(C)cc(C(=O)N2CC[C@H](NCc3ccnc4ccccc34)C[C@H]2Cc2ccc(Cl)cc2)c1 (relative stereo)	148 to 149
CN(C)S(=O)(=O)CCc1ccc2[nH]cc(CC#N)c2c1	105 to 107
Cc1[nH]c(=O)c(C#N)cc1-c1ccc(S(C)=O)cc1 (stereo not drawn)	290 to 291
CC1CC(C)CN(CCNC(=O)Nc2ccccc2)C1 (stereo not drawn)	189 to 191

Further lines, results first:

melting point [°C]	SMILES
146 to 149	O=C(Oc1ccccc1)c1ccc(-c2ccccc2)cc1
62 to 64	CC(O)c1cccc([N+](=O)[O-])c1Cl (stereo not drawn)
154 to 155	CS(=O)(=O)c1ccc(-c2nnsc2-c2ccccc2)cc1
283 to 285	Oc1ncc(-c2cccc(C(F)(F)F)c2)cn1
89 to 90	O=C(NCCc1ccc(O)c(F)c1)OCc1ccccc1
117	CC(C)C(O)(C#C[Si](C)(C)C)c1cncnc1 (stereo not drawn)
216 to 218	Nc1nc2ccccc2c2c1nc(C1CCCC1)n2CCOc1ccccc1
168 to 170	CN(C(CCn1c(=O)cc(Cl)[nH]c1=O)C(=O)NO)S(=O)(=O)c1ccc(Oc2cccc(Cl)c2)cc1 (stereo not drawn)
116 to 118	CCOC(=O)COc1ccc(S(=O)CCNS(=O)(=O)c2ccccc2)cc1 (stereo not drawn)
144 to 145	CCOC(=O)c1c(C)cc2c(c1C)c(=O)n(-c1ccccc1C(F)(F)F)c(=O)n2CCN1CCCCC1
176 to 177	COc1cc(-c2nnc(C)s2)cc2oc(=O)c(Cl)c(C)c12
118 to 119	CCOC(=O)C1CCc2c(sc3nc(CN4C(=O)COC4=O)c(Cl)c(-c4ccc(OC)cc4)c23)C1 (stereo not drawn)
176 to 177	Cc1c2c(c(Cc3ccc(C(C)C)cc3)c(C)c1NC(=O)NCCO)OCC2
215 to 217	CSc1nn2c(O)cc(CCl)nc2c1S(=O)(=O)c1ccccc1
234 to 236	CCN(CC)c1nc2n(n1)Cc1ccccc1-2
104 to 106	CC(C)CC(C#N)NC(=O)C1CCCCC1NC(=O)OCc1ccccc1 (stereo not drawn)
184	COC(=O)c1sccc1Nc1ccccc1[N+](=O)[O-]
< 60	CCN(CCc1ccc(NS(C)(=O)=O)cc1)CCc1ccc(NS(C)(=O)=O)cc1
195	CCS(=O)(=O)N(CC(=O)Nc1ccncc1)C1CC(C)(C)Oc2ccc(F)cc21 (stereo not drawn)
198 to 200	CC(C)Oc1nc(-c2ccc(=O)n(C(C)C)n2)c(-c2ccccc2)nc1N
126 to 128	COc1ccc2c(c1)C(CCNC(=O)C(F)(F)F)=C(Cc1ccccc1)C2

melting point [°C]	SMILES
120	CCN(CC)C1=NN(Nc2ccc3nc(C)cc(N)c3c2)NC(Cl)=C1
114 to 134	Cc1cc(C2=NOC(c3cc(Cl)cc(Cl)c3)(C(F)(F)F)O2)ccc1C(=O)O (stereo not drawn)
> 250	Cc1nc(N)c2nc(CO)n(NC3CCCCC3)c2c1C
221 to 223	COc1ccc(NC(=O)C(=O)c2c3n(c4ccccc24)CCNCC3)cc1Cl
142 to 152	Cc1cc(-c2cccc(NC(=O)N[C@@H]3c4cc(C#N)ccc4OC(C)(C)[C@H]3O)c2)n(C)n1
76 to 81	COC(=O)c1cc(CCN(C)CCCC(C#N)(c2ccc(OC)c(OC)c2)C(C)C)ccc1OC (stereo not drawn)
136 to 137	N=C(Nc1ccccc1)Nc1ncccc1OCc1c(F)cccc1F
179	COc1cccc(N(CC(=O)N(C)c2ccccc2)C(=O)CNC(=O)Nc2cccc(C)c2)c1
223 to 225	CC(=O)Nc1ncc2cc(-c3c(Cl)cccc3Cl)c(NC(C)=O)nc2n1
84 to 86	CC(N1CCN(c2ncn(Cc3ccc(C(C)(C)C)cc3)n2)CC1)C(O)(Cn1cncn1)c1ccc(F)cc1F (stereo not drawn)
54 to 58	CCOC(=O)c1c(C2CC2)nn(CC)c1Cc1ccc(-c2ccccc2S(N)(=O)=O)cc1
125 to 129	[N-]=[N+]=NCc1ccc2c(NC(=O)c3ccccc3)nccc2c1
173 to 174	COc1ccc(CNc2cc(C(=O)Nc3ccccc3)ccc2OC)cc1
111 to 113	CCCc1nc2c(N)nc3cc(OCCOCCNC(=O)OC(C)(C)C)ccc3c2s1
158 to 159	CC(=NOCCOc1ccc(C(=O)O)c(OC(=O)c2ccc(-c3ccccc3)cc2)c1)c1ccccc1
128 to 129	COC(=O)CS(=O)(=O)NOC[C@@H]1NC(=O)[C@@H]1NC(=O)OC(C)(C)C (relative stereo)
253 to 255	CS(=O)(=O)c1cccc(NC(=O)c2cnn3c(Cl)cc(-c4ccc(Cl)cc4)nc23)c1
> 250	O=C(O)c1cccc(C(=O)C=Cc2ccc(Cl)c(Cl)c2)c1O
152 to 153	CCCc1c(OCc2ccc(C(=O)O)cc2OCC)ccc(C(C)=O)c1O
98 to 100	CCOC(=O)c1cnc2ccc(OC)nc2c1Cl
105 to 106	CCNc1nc2ccc(COc3cccc(CN4CCCCC4)c3)cc2o1
